Key:
Format in all cases: cell-based
[1] = target: hCKIε phosphorylation of hPER1 (Homo sapiens, UniProt P49674); experiment: Treatment of transfected cells with hCKIε inhibitor: hPER1 phosphorylation
Excerpt: (§1) Furthermore, like hCKIε and hPER1, HCKIε co-immunoprecipitates with transfected hPER2. Treatment of transfected cells with the hCKIε inhibitor, CKI-7, results in a decrease of hPER1 and hPER2 phosphorylation. Pulse/chase studies reveal that increased phosphorylation of hPER2 by transfected hCKIε caused hPER2 to be degraded.

[2] = target: hCKIε phosphorylation of hPER2 (Homo sapiens, UniProt P49674); experiment: Treatment of transfected cells with hCKIε inhibitor: hPER2 phosphorylation
Excerpt: as §1

[3] = tested on: rat PER1 oscillation in Rat1 fibroblast or Rat SCN cells; experiment: PER1 mRNA oscillation after serum shock by TaqMan RT-PCR; settings: 10 uM, FIG. 10/11
Description: To test the effect of CKI inhibitors in altering rat PER1 oscillation by quantitative PCR using TaqMan RT-PCR (Perkin Elmer Biosystems), rat-1 fibriblasts are grown in Dulbecco's modified Eagle medium supplimented with 5% fetal calf serum and a mixture of penicillin-streptomycin-glutatamine. SCN cells are grown in Dulbecco's Minimum Eagle medium supplimented with 10% fetal calf serum penicillin-streptomycin-glutamine and 2% glucose. Approximately 5×10^5 cells are plated in 10 cm petri dishes 3-5 days prior to the experiment. Once the plates are confluent, which is designated as time=0, the medium is exchanged with serum rich medium, i.e. serum containing 50% horse serum. After 2 hours of the serum shock in 50% horse serum, this medium is replaced with serum-free medium. At indicated times, the dishes are washed with PBS and kept frozen at −80° C. until the extraction of whole cell mRNA. hCK1ε inhibitor or control is added at the time when serum-free medium is added.
Whole cell mRNA is extracted by means of RNeasy Midi kit or Rnleasy 96 kit (Qiagen) and Dnase treated (Ambion DNA-free). Quantitative PCR is performed with real-time Taq-Man technology (PE Biosystems) [C. A. Heid et al., Genomes Res. 6. M (1996)] and analysed on an ABI PRISM 7700 (T. Takumi et al., Genes Cells 4, 67: 1999). […] Ratios of rPer1 to rActin were calculated and normalized.

Sequence of hCKIε phosphorylation of hPER2 (P49674 whole entry): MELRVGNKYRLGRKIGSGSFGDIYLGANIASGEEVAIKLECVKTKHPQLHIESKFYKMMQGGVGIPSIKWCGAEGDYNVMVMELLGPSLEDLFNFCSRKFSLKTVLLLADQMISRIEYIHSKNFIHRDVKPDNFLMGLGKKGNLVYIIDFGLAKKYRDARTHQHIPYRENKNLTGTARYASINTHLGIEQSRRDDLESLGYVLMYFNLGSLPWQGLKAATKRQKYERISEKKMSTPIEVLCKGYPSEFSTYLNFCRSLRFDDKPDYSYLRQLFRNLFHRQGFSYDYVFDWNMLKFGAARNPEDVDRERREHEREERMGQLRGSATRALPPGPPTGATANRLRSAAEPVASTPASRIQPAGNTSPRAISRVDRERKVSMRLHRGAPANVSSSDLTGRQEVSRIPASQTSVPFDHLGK
Sequence of hCKIε phosphorylation of hPER1 (P49674 whole entry): as above

SMILES	hPER1 phosphorylation [1]	hPER2 phosphorylation [2]	effect on circadian rhythm of cells (rat Per1 mRNA levels) [3]
NCCNS(=O)(=O)c1ccc(Cl)c2ccncc12 [CKI-7]	decrease	decrease	–
CNCCC(Oc1ccc(C(F)(F)F)cc1)c1ccccc1 (stereo not drawn) [F, Fluoxitin]	–	–	do not alter the circadian rhythm of cells

Source: patent US6555328B1, “Screening methods for altering circadian rhythms and for human casein kinase I δ and/or ε phosphorylation of human clock proteins, period 1, -2 and -3” (Aventis Pharmaceuticals Inc., priority 1999, dated 2003)
